Laboratory results as given in ChEMBL document CHEMBL1133069, “Highly sensitive and rapid detection of antibody catalysis by luminescent bacteria” (Bioorg Med Chem Lett, 2000).

Key:
[1] = Kcat in bacterium VhM42
[2] = Km in bacterium VhM42

- k cat [1]: 1.67e-05 s⁻¹
- Km [2]: 190 µM
SMILES: CCCCCCCCC(O)CC(C)=O (configuration not stated)
